One compound from ChEMBL document CHEMBL1122674, “Aporphines. 58. N-(2-chloroethyl) [8,9-2H]norapomorphine, an irreversible ligand for dopamine receptors: synthesis and application” (J Med Chem, 1984) can be followed below.

One assay addresses Dopamine receptor. Description: Compound was evaluated for the competitive binding with [3H]spiperone binding to Canine striatal membranes. Further details: species or system Canis lupus familiaris.
For assay [1], the target named is Dopamine receptor (Homo sapiens) (UniProt P14416+P35462+P21918+P21917+P21728). Briefly: Compound was evaluated at 100 uM concentration to displace [3H]spiperone and result indicates the percent displacement. The following applies: Canis lupus familiaris. In kind it is protein assay.

In the case of `Oc1ccc2c(c1O)-c1cccc3c1[C@@H](C2)N(CCCl)CC3`, the IC50 app at Dopamine receptor was 8 µM. The compound further returned a Displacement in assay [1] of 70%.
